Measured values: PubChem BioAssay AID1919015 (Molecular Pharmacology Branch, DTP, NCI, 2023)

Test system: OVCAR-5 complex spheroids with HUVEC/MSC, viability, % test/control
Experiment: Anticancer human tumor OVCAR-5 cell line growth inhibition [AhR];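 further: spheroids exposed to compounds for 7 days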;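 on viability, T/C: 100% = DMSO vehicle control wells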
Details: for IC50: curve of first compound; for viability, T/C: stronger effect = lower value; active means viability on the fitted dose curve at most 10% of control; inactive means the rest
Excerpt: Multicellular complex tumor spheroid response to aryl hydrocarbon receptor antagonists in combination with a variety of drugs and investigational agents in selected tumor cell lines
The current study was undertaken to assess response to aryl hydrocarbon receptor antagonists in combination with standard-of-care drugs and investigational agents in solid tumor complex spheroid models. Complex spheroids include a stromal component modeled by human endothelial cells (HUVEC) and fibroblasts modeled by human mesenchymal stem cells (MSCs). The concentration ranges selected for each drug and investigational agent were based upon clinically achievable concentrations if the clinical Cmax of the agent was known.
Compounds. The drugs and investigational agents: BAY 2416964 (NSC825713), GNF351 (NSC835774), CH-223191 (NSC835775), CPI-455 (NSC825282), aza-TdCyd (NSC777586), decitabine (NSC127716), belinostat (NSC758774), entinostat (NSC756642), pevonedistat (NSC761192), tazemetostat (NSC777109), talazoparib (NSC765396), olaparib (NSC753686), selinexor (NSC780203), nedisertib (M3814, NSC802822), bortezomib (NSC756655), venetoclax (NSC766270), doxorubicin (NSC123127), elimusertib (BAY189344, NSC800525), ceralasertib (AZD6738, NSC777638), TAK-243 (NSC785004), alisertib (NSC759677), etoposide (NSC141540), topotecan (NSC609699), eribulin (NSC707389), gemcitabine (NSC613327), carboplatin (NSC241240), cisplatin (NSC119875), and SN-38 (NSC673596) were obtained from the National Cancer Institute (NCI) Developmental Therapeutics Program Chemical Repository (32). The FDA-approved anticancer drug set is available from the Developmental Therapeutics Program at https://dtp.cancer.gov/organization/dscb/obtaining/available plates.htm. […] The stock solutions were prepared in dimethyl sulfoxide (DMSO, Sigma-Aldrich, St. Louis, MO, cat. D2650), except for the platinum compounds which were prepared in saline (Quality Biological, Gaithersburg, MD, cat. 114-055-101), at 800-fold the tested concentration and stored at -70 degrees C prior to their use. All drugs and investigational agents were tested over a range starting from a high concentration at or near the clinical Cmax and decreasing in half-log increments. If the clinical Cmax for an agent had not been determined, the highest concentration tested was 10 microM (Table 1).
Cell Culture. All cells were maintained in an incubator at 37 degrees C and 5% CO2 with 95% humidity. The PDC lines were cultured according to standard operating procedures established by the NCI PDMR (https://pdmr.cancer.gov). Briefly, all PDCs were thawed and cultured in Matrigel-coated flasks prepared with a working solution of 1X Ham's F-12 nutrient mix, without supplementation (Invitrogen, Waltham, MA, cat. 11765054), 100 U/mL penicillin-streptomycin (Invitrogen, cat. 15140122), and 2.5% Matrigel (Corning Inc., Corning, NY, cat. 354248) for the first three passages. All PDCs were cultured in complete DMEM/F-12 media containing advanced DMEM/F-12 (Invitrogen, cat. 12634028), 4.9% defined fetal bovine serum, heat inactivated (HyClone Laboratories Inc., Logan, UT, cat. SH30070.03HI), 389 ng/mL hydrocortisone (Sigma-Aldrich, cat. H4001), 9.7 ng/mL human EGF recombinant protein (Invitrogen, cat. PHG0313), 23.4 microg/mL adenine (Sigma-Aldrich, cat. A2786), 97.3 U/mL penicillin-streptomycin (Invitrogen, cat. 15140122), 1.9 mM L-glutamine (Invitrogen, cat. 25030081), and 9.7 microM Y-27632 dihydrochloride (Tocris Bioscience, Bristol, United Kingdom, cat. 1254). The PDCs were cultured in complete DMEM/F12 media without 10 microM Y-27632 dihydrochloride for at least two passages prior to the screen. The established cell lines NCI-H1341 and […] were cultured in DMEM/F-12, HEPES (Invitrogen, cat. 11330032), 5% defined fetal bovine serum (HyClone Laboratories Inc., cat. SH30070.03), ITS premix universal culture supplement [insulin (5 microg/mL), transferrin (5 microg/mL), and selenious acid (5 ng/mL)] […]

[1] = second compound 0.1 µM, first compound 0.0316 µM
[2] = second compound 0.1 µM, first compound 0.1 µM
[3] = second compound 0.1 µM, first compound 0.316 µM
[4] = second compound 0.1 µM, first compound 1 µM
[5] = second compound 0.1 µM, first compound 3.16 µM
[6] = second compound 0.1 µM, first compound 10 µM
[7] = second compound 0.316 µM, first compound 0.0316 µM
[8] = second compound 0.316 µM, first compound 0.1 µM
[9] = second compound 0.316 µM, first compound 0.316 µM
[10] = second compound 0.316 µM, first compound 1 µM
[11] = second compound 0.316 µM, first compound 3.16 µM
[12] = second compound 0.316 µM, first compound 10 µM
[13] = second compound 1 µM, first compound 0.0316 µM
[14] = second compound 1 µM, first compound 0.1 µM
[15] = second compound 1 µM, first compound 0.316 µM
[16] = second compound 1 µM, first compound 1 µM
[17] = second compound 1 µM, first compound 3.16 µM
[18] = second compound 1 µM, first compound 10 µM
[19] = second compound 3.16 µM, first compound 0.0316 µM
[20] = second compound 3.16 µM, first compound 0.1 µM
[21] = second compound 3.16 µM, first compound 0.316 µM
[22] = second compound 3.16 µM, first compound 1 µM
[23] = second compound 3.16 µM, first compound 3.16 µM
[24] = second compound 3.16 µM, first compound 10 µM
[25] = second compound 10 µM, first compound 0.0316 µM
[26] = second compound 10 µM, first compound 0.1 µM
[27] = second compound 10 µM, first compound 0.316 µM
[28] = second compound 10 µM, first compound 1 µM
[29] = second compound 10 µM, first compound 3.16 µM
[30] = second compound 10 µM, first compound 10 µM

Nc1ncn(C2CC(O)C(CO)S2)c(=O)n1 (stereo not given) + CC(CO)NC(=O)c1cc(-c2ccc(Cl)cc2)nn(-c2cnn(C)c2)c1=O
inactive: viability, T/C (second compound 0.1 µM, first compound 0.000949 µM) 104% | viability, T/C (second compound 0.1 µM, first compound 0.003 µM) 110% | viability, T/C (second compound 0.1 µM, first compound 0.00949 µM) 106% | viability, T/C (second compound 0.1 µM, first compound 0.03 µM) 110% | viability, T/C (second compound 0.1 µM, first compound 0.0949 µM) 103% | viability, T/C (second compound 0.1 µM, first compound 0.3 µM) 85.3% | viability, T/C (second compound 0.316 µM, first compound 0.000949 µM) 103% | viability, T/C (second compound 0.316 µM, first compound 0.003 µM) 109% | viability, T/C (second compound 0.316 µM, first compound 0.00949 µM) 109% | viability, T/C (second compound 0.316 µM, first compound 0.03 µM) 105% | viability, T/C (second compound 0.316 µM, first compound 0.0949 µM) 101% | viability, T/C (second compound 0.316 µM, first compound 0.3 µM) 84.6% | viability, T/C (second compound 1 µM, first compound 0.000949 µM) 109% | viability, T/C (second compound 1 µM, first compound 0.003 µM) 112% | viability, T/C (second compound 1 µM, first compound 0.00949 µM) 113% | viability, T/C (second compound 1 µM, first compound 0.03 µM) 109% | viability, T/C (second compound 1 µM, first compound 0.0949 µM) 106% | viability, T/C (second compound 1 µM, first compound 0.3 µM) 91.9% | viability, T/C (second compound 3.16 µM, first compound 0.000949 µM) 101% | viability, T/C (second compound 3.16 µM, first compound 0.003 µM) 104% | viability, T/C (second compound 3.16 µM, first compound 0.00949 µM) 102% | viability, T/C (second compound 3.16 µM, first compound 0.03 µM) 104% | viability, T/C (second compound 3.16 µM, first compound 0.0949 µM) 93.3% | viability, T/C (second compound 3.16 µM, first compound 0.3 µM) 83.5% | viability, T/C (second compound 10 µM, first compound 0.000949 µM) 99.7% | viability, T/C (second compound 10 µM, first compound 0.003 µM) 101% | viability, T/C (second compound 10 µM, first compound 0.00949 µM) 98.9% | viability, T/C (second compound 10 µM, first compound 0.03 µM) 98.4% | viability, T/C (second compound 10 µM, first compound 0.0949 µM) 93% | viability, T/C (second compound 10 µM, first compound 0.3 µM) 86.2%
> 300 nM: IC50 (second compound 0.1 µM) | IC50 (second compound 0.316 µM) | IC50 (second compound 1 µM) | IC50 (second compound 3.16 µM) | IC50 (second compound 10 µM)

NS(=O)(=O)OCC1CC(n2ccc3c(NC4CCc5ccccc54)ncnc32)CC1O (stereo not given) + Cc1cncc(-c2nc(NCCc3c[nH]c4ccccc34)c3ncn(C(C)C)c3n2)c1
inactive: viability, T/C [1] 86.4% | viability, T/C [2] 57.5% | viability, T/C [3] 37.2% | viability, T/C [4] 17.6% | viability, T/C [5] 13.1% | viability, T/C [6] 12.2% | viability, T/C [7] 78% | viability, T/C [8] 51.5% | viability, T/C [9] 33% | viability, T/C [10] 16.5% | viability, T/C [11] 13.6% | viability, T/C [12] 12.3% | viability, T/C [13] 69.7% | viability, T/C [14] 47.4% | viability, T/C [15] 31.6% | viability, T/C [16] 16.6% | viability, T/C [17] 11.3% | viability, T/C [19] 64% | viability, T/C [20] 50.2% | viability, T/C [21] 22.7%
active: viability, T/C [18] 10.7% | viability, T/C [22] 10.7% | viability, T/C [23] 6.17% | viability, T/C [24] 4.99% | viability, T/C [25] 3.84% | viability, T/C [26] 3.41% | viability, T/C [27] 2.74% | viability, T/C [28] 2.03% | viability, T/C [29] 0.83% | viability, T/C [30] 0.48%
114 nM: IC50 (second compound 0.316 µM)
< 31.6 nM: IC50 (second compound 10 µM)
152 nM: IC50 (second compound 0.1 µM)
98 nM: IC50 (second compound 3.16 µM)
91.8 nM: IC50 (second compound 1 µM)

Nc1ccn(C2OC(CO)C(O)C2(F)F)c(=O)n1 (stereo not given) + Cc1ccccc1N=Nc1ccc(NC(=O)c2ccnn2C)c(C)c1
inactive: viability, T/C [1] 27.7% | viability, T/C [2] 25.4% | viability, T/C [3] 26.3% | viability, T/C [4] 27.4% | viability, T/C [5] 28.5% | viability, T/C [6] 28.1% | viability, T/C [7] 27.5% | viability, T/C [8] 25.3% | viability, T/C [9] 26.4% | viability, T/C [10] 26.9% | viability, T/C [11] 29% | viability, T/C [12] 29.1% | viability, T/C [13] 29.7% | viability, T/C [14] 27.1% | viability, T/C [15] 26.7% | viability, T/C [16] 27.1% | viability, T/C [17] 28% | viability, T/C [18] 27.9% | viability, T/C [19] 28.9% | viability, T/C [20] 27.2% | viability, T/C [21] 27.1% | viability, T/C [22] 28.2% | viability, T/C [23] 29.3% | viability, T/C [24] 29.2% | viability, T/C [25] 31.6% | viability, T/C [26] 29.2% | viability, T/C [27] 31.9% | viability, T/C [28] 31.1% | viability, T/C [29] 32.2% | viability, T/C [30] 31%
< 31.6 nM: IC50 (second compound 0.1 µM) | IC50 (second compound 0.316 µM) | IC50 (second compound 1 µM) | IC50 (second compound 3.16 µM) | IC50 (second compound 10 µM)
